Data as given in PubChem BioAssay (NCI).
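Each compound was tested at five concentrations against cells in 96-well plates for 48 hours. TGI: total growth inhibition.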

What was measured:
Test in all cases: growth of human tumour cells (NCI), 48 h
[1] = test system: HT29 colon
[2] = test system: HCT-15 colon
[3] = test system: U251 CNS
[4] = test system: IGROV1 ovarian
[5] = test system: HS 578T breast
[6] = test system: OVCAR-4 ovarian
[7] = test system: SF-295 CNS
[8] = test system: CAKI-1 renal
[9] = test system: RXF 393 renal
[10] = test system: HCT-116 colon
[11] = test system: UO-31 renal
[12] = test system: CCRF-CEM leukemia
[13] = test system: MDA-MB-435
[14] = test system: HOP-92 NSCLC
[15] = test system: LOX IMVI melanoma
[16] = test system: 786-0 renal
[17] = test system: NCI-H460 lung
[18] = test system: HL-60(TB) leukemia
[19] = test system: ACHN renal
[20] = test system: RPMI-8226 leukemia
[21] = test system: KM12 colon
[22] = test system: A549 NSCLC
[23] = test system: HCC-2998 colon
[24] = test system: OVCAR-3 ovarian
[25] = test system: MALME-3M melanoma
[26] = test system: HOP-62 NSCLC
[27] = test system: OVCAR-5 ovarian
[28] = test system: SK-MEL-5 melanoma
[29] = test system: OVCAR-8 ovarian
[30] = test system: A498 renal
[31] = test system: MDA-N
[32] = test system: T-47D breast
[33] = test system: SK-MEL-2 melanoma
[34] = test system: SNB-75 CNS
[35] = test system: NCI-H226 lung
[36] = test system: PC-3 prostate
[37] = test system: SN12C renal
[38] = test system: SF-539 CNS
[39] = test system: UACC-62 melanoma
[40] = test system: MDA-MB-231 breast
[41] = test system: SW-620 colon
[42] = test system: SK-MEL-28 melanoma
[43] = test system: SK-OV-3 ovarian
[44] = test system: NCI-H522 lung
[45] = test system: NCI/ADR-RES ovarian
[46] = test system: SF-268 CNS
[47] = test system: BT-549 breast
[48] = test system: UACC-257 melanoma
[49] = test system: M14 melanoma
[50] = test system: NCI-H23 lung
[51] = test system: EKVX NSCLC
[52] = test system: MCF7 breast
[53] = test system: SNB-19 CNS
[54] = test system: TK-10 renal
[55] = test system: MOLT-4 leukemia
[56] = test system: K-562 leukemia
[57] = test system: DU-145 prostate
[58] = test system: COLO 205 colon

Measured: TGI

COC(=O)/C(=N\NC(=S)NN)C(C(=O)OC)C(=O)C(=O)Nc1cccc(C(F)(F)F)c1 (stereo not given)
> 100 µM: [1] | [2] | [3] | [4] | [5] | [6] | [7] | [8] | [9] | [10] | [11] | [12] | [13] | [14] | [15] | [16] | [17] | [18] | [19] | [20] | [21] | [22] | [23] | [24] | [25] | [26] | [27] | [28] | [29] | [30] | [31] | [32] | [33] | [34] | [35] | [36] | [37] | [38] | [39] | [40] | [41] | [42] | [43] | [44] | [45] | [46] | [47] | [48] | [49] | [50] | [51] | [52] | [53] | [54]

C/C=C1/CN2CCC34c5ccccc5N(C)C23C2CC1C4(C(=O)OC)C(O)O2 (stereo not given)
> 100 µM: [1] | [2] | [3] | [4] | [5] | [6] | [7] | [8] | [10] | [11] | [12] | [13] | [14] | [15] | [16] | [17] | [18] | [19] | [20] | [21] | [55] | [22] | [23] | [56] | [24] | [26] | [27] | [28] | [29] | [30] | [57] | [31] | [32] | [33] | [34] | [35] | [36] | [37] | [38] | [39] | [40] | [41] | [42] | [43] | [58] | [44] | [45] | [46] | [47] | [48] | [49] | [50] | [51] | [52] | [53] | [54]

COC(=O)c1cnn2c1ccc1ccccc12
> 100 µM: [1] | [2] | [3] | [4] | [5] | [7] | [8] | [9] | [10] | [11] | [12] | [13] | [14] | [15] | [16] | [17] | [18] | [19] | [20] | [21] | [55] | [22] | [56] | [24] | [25] | [26] | [27] | [28] | [29] | [30] | [57] | [31] | [32] | [33] | [34] | [35] | [36] | [37] | [38] | [39] | [40] | [41] | [42] | [43] | [58] | [44] | [45] | [46] | [47] | [48] | [49] | [50] | [51] | [53] | [54]
